Results on four molecules are retold here after patent publication US20090214435A1, “Recombinant vector expressing MDR1 shRNA and thymidine kinase and use thereof” (Kyungpook National University Industry-Academic Cooperation …, priority 2007, published 2009).

Bounds are passed on as bounds.

In data set [1] the test system is HCT/Mock cells. As to the kind of experiment: Clonogenic assay for anticancer drug sensitivity, control cells. Type of data set: cell-based, human. To be noted: 10 days. On the procedure: (§1) First, MTKG cells and HCT/Mock cells as a control group were inoculated at a cell density of 10^3 cells/well in a 6-well plate containing RPMI 1640 medium, followed by addition of an anticancer drug (doxorubicin or paclitaxel) at different concentrations (0, 1, 5, 10, 50, 100, 500, and 1000 nM) and incubation for 10 days. Thereafter, the culture medium was eliminated, and the cells were washed three times with a phosphate buffer and stained with a dye (Diff Quick staining kit). Colony formation was confirmed and colony count was made.

Data set [2] concerns MTKG cells. As to the kind of experiment: Clonogenic assay for anticancer drug sensitivity, transfected cells. Type of data set: cell-based. The conditions noted are these: Homo sapiens, 240 h, 10 days, read-out: inhibition of cell proliferation. On the procedure: as §1
The subject of data set [3] is MTKG cells. As to the kind of experiment: Clonogenic assay, co-administration of ganciclovir and doxorubicin. Type of data set: cell-based, human. To be noted: 10 days. As to the method: In order to confirm effects of co-administration of an anti-viral drug ganciclovir and an anticancer drug (doxorubicin) on cancer cells, clonogenic assay was carried out. For this purpose, first, MTKG cells were inoculated and cultured in a 100 mm plate containing RPMI 1640 medium, and the cells were then washed three times with a fresh medium. The cells were desorbed from the plate using trypsin-EDTA, and 1×10^3 cells were counted and inoculated into a 6-well plate with addition of ganciclovir (0.1 μCi) and doxorubicin at two different concentrations (10 and 25 nM), followed by incubation. 10 days after incubation, the culture medium was eliminated, and the cells were washed three times with a phosphate buffer and stained with a dye (Diff Quick staining kit). Colony formation was confirmed and colony count was made.

Data set [4] has as its system MTKG cells. As to the kind of experiment: Intracellular accumulation of [H3]-ganciclovir. Type of data set: cell-based, human. To be noted: 0.76 μCi/mL [H3]-ganciclovir, 45 min at 37° C., MTKG cells compared to HCT-15 and HCT/Mock cells, FIG. 5A. On the procedure: A degree of intracellular ganciclovir accumulation by the TK-GFP gene was investigated as follows. MTKG cells constructed in Section 1-3 of Example 1, and HCT-15 and HCT/Mock cells as a control group were cultured in 6-well plates containing RPMI 1640 medium for 48 hours, to which 0.76 μCi/mL of an isotope-labeled ganciclovir ([H^3]-Ganciclovir, Moravek, USA) was then added, followed by incubation at 37° C. for 45 min. Then, the plate was washed three times with a phosphate buffer and a cell lysis buffer (50 mM Tris-HCl, 150 mM NaCl, and 1% SDS) was added thereto to lyse the cells. For each cell lysate sample, an isotope activity was measured using a beta-counter.

For another data set, the system named is HCT-15 cells. As to the kind of experiment: Cell proliferation assay (CellTiter 96 Aqueous One Solution) for ganciclovir sensitivity. Type of data set: cell-based, human. To be noted: ganciclovir 0.1, 1, 10 μM, 4 days, FIG. 5B. The text has this:
(§2) Whether increased intracellular accumulation capacity of ganciclovir confirmed in Section 5-1 leads to the enhanced drug sensitivity of MTKG cells to ganciclovir was examined by a cell proliferation assay using CellTiter 96 Aqueous One Solution cell proliferation assay kit (Promega, USA), First, MTKG cells and HCT/Mock cells as a control group were inoculated at a cell density of 10^2 cells/well in a 96-well plate containing RPMI 1640 medium, followed by addition of ganciclovir at different concentrations (0, 0.1, 1, and 10 μM) and incubation for 4 days. Thereafter, 20 μl of detection solution were added to each well. The cells were incubated for 90 min at 37° C. and then measured absorbance at 490 nm using miroplate reader (BioRad, USA). From the experimental results shown in FIG. 5B, it was confirmed that proliferation of HCT-15 and HCT/Mock cells as a control group was not affected by administration of ganciclovir, whereas proliferation of the MTKG cells was affected even at a ganciclovir concentration of 0.1 μM or higher, thus representing increased drug sensitivity of the cell.

The test system of data set [5] is HCT/Mock cells. Described as above. Type of data set: cell-based, human. The conditions noted are these: ganciclovir 0.1, 1, 10 μM, 4 days, FIG. 5B.
Description: as §2

In data set [6] the test system is MTKG cells. Described as above. Type of data set: cell-based, human. The conditions noted are these: ganciclovir concentration of 0.1 μM or higher, 4 days, FIG. 5B.
Description: as §2

Data set [7] deals with MTKG cells. As to the kind of experiment: Intracellular accumulation of [3H]-paclitaxel. The conditions noted are these: 50 nM [3H]-paclitaxel, 2 hours at 37° C., MTKG cells compared to HCT-15 and HCT/Mock cells, FIG. 4A. Type of data set: cell-based, human. On the procedure:
A degree of intracellular drug accumulation by MDR1 shRNA was investigated. MTKG cells constructed in Section 1-3 of Example 1, and HCT-15 and HCT/Mock cells as a control group were cultured in 6-well plates containing RPMI 1640 medium for 48 hours, to which 50 nM of an isotope-labeled anticancer drug ([^3H]-paclitaxel, Moravek, USA) was then added, followed by incubation at 37° C. for 2 hours. Then, the plate was washed three times with a phosphate buffer, and a cell lysis buffer (50 mM Tris-HCl, 150 mM NaCl, and 1% SDS) was added thereto to lyse the cells. For each cell lysate sample, an isotope activity was measured using a beta-counter.

The next data set deals with MDR1 mRNA. As to the kind of experiment: RT-PCR analysis of MDR1 mRNA expression in transfected cells. Type of data set: cell-based, human. To be noted: MTKG cells vs HCT-15 and HCT/Mock, FIG. 2A. On the procedure:
Expression of MDR1 shRNA in MTKG cells of Section 1-3 of Example 1 was examined by RT-PCR For this purpose, total RNA was isolated from HCT-15, HCT/Mock, and MTKG cells, using Trizol reagent (Invitrogen) according to the manufacturer's instructions. Then, cDNA was prepared using 2 μg of the isolated total RNA as a template, and Oligo(dT)15 primer (Bionics, Seoul, Korea) and reverse transcriptase (Promega). PCR amplification for MDR1 mRNA was carried out using the prepared cDNA as a template and a pair of primers (SEQ ID NOS: 12 and 13). PCR was carried out as follows: initial denaturation of template cDNA at 94° C. for 2 min, followed by 30 cycles of denaturation at 94° C. for 30 seconds, annealing at 60° C. for 30 seconds and extension at 72° C. for 1 min.

Another data set deals with P-glycoprotein. As to the kind of experiment: Western blot analysis of P-glycoprotein expression in transfected cells. Type of data set: cell-based, human. The conditions noted are these: MTKG cells vs control cell line, FIG. 2B. As to the method:
In order to investigate whether intracellular incorporation of MDR1 shRNA inhibits expression of P-glycoprotein which is an expression product of the MDR1 gene, Western blot analysis was carried out for proteins isolated from HCT-15, HCT/Mock, and MTKG cells, respectively. The procedure will be briefly described as follows. HCT-15, HCT/Mock, and MTKG cells were lysed in a cell lysis buffer (containing 50 mM Tris-HCl, 150 mM NaCl, 1% Triton X-100, 1 mM CaCl2, 1 mM MgC2 and protease inhibitor cocktail (Roche, USA), pH 7.4). 30 μg of each protein in the cell lysates was subjected to electrophoresis on polyacrylamide gel containing 7% SDS, and the developed protein gel was transferred to a nitrocellulose membrane. Thereafter, anti-P-glycoprotein antibodies (clone C219, Calbiochem, USA) were diluted in a TBS-T solution (50 mM Tris-HCl, pH 7.6, 150 mM NaCl, 0.1% Tween 20) and were allowed to react and bind with a nitrocellulose membrane for more than 16 hours under refrigeration conditions. After the reaction was complete, the membrane was washed three times with a TBS-T solution, followed by binding reaction with horseradish peroxidase (HRP)-conjugated anti-mouse IgG antibodies (Santa Cruz, USA) for 1 hour at room temperature. […]
In general terms: Immunoblotting shows a protein as a band on a membrane.

For the molecule `COc1cccc2c1C(=O)c1c(O)c3c(c(O)c1C2=O)C[C@@](O)(C(=O)CO)C[C@@H]3O[C@H]1C[C@H](N)[C@H](O)[C@H](C)O1` [doxorubicin], the “inhibition of cell proliferation” value in the data set with HCT/Mock cells [1] (doxorubicin concentration of 500 nM or higher, FIG. 4B) is ≥ 90%. Moreover, in the data set on MTKG cells [2] (doxorubicin concentration of 50 nM, FIG. 4B), the inhibition at 0.05 µM was ≥ 90%. The cell survival rate in the data set with MTKG cells [3] (10 nM doxorubicin alone) is listed as 78.8±7.8%; in the data set with MTKG cells [3] (25 nM doxorubicin alone), 37.7±3.3%.

On to `Nc1nc(O)c2ncn(COC(CO)CO)c2n1` [ganciclovir], for which, in the data set on MTKG cells [4], the accumulation of ganciclovir entry is “higher accumulation”. The “proliferation of cells on administration of ganciclovir” value is recorded as “not affected” in the data set on HCT-15 cells, “not affected” with HCT/Mock cells [5] and “affected” in the data set with MTKG cells [6]. Moreover, the cell survival rate with MTKG cells [3] (0.1 μCi ganciclovir alone) was 61.1±4.1%.

Regarding `CC(=O)O[C@H]1C(=O)[C@@]2(C)[C@H]([C@H](OC(=O)c3ccccc3)[C@]3(O)C[C@H](OC(=O)[C@H](O)[C@@H](NC(=O)c4ccccc4)c4ccccc4)C(C)=C1C3(C)C)[C@]1(OC(C)=O)CO[C@@H]1C[C@@H]2O` [paclitaxel], in the data set on MTKG cells [7], the accumulation of paclitaxel entry is given as “higher accumulation”. Also, in the data set with HCT/Mock cells [1] (Homo sapiens, 240 h, paclitaxel concentration of 100 nM, FIG. 4C, read-out: inhibition of cell proliferation), the inhibition at 0.1 µM was ≥ 70%. The inhibition at 0.01 µM in the data set on MTKG cells [2] (paclitaxel concentration of 10 nM, FIG. 4C) was ≥ 70%.

B1: MDR1 shRNA: shRNA with sense and antisense sequences for target SEQ ID NO: 6 (5′-GGCCUAAUGCCGAACACAU-3′), CGAA loop, expressed from U6 promoter (nucleic acid)
sense: GATCCCGGCCTAATGCCGAACACATCGAAATGTGTTCGGCATTAGGCCTTTTTTCCAAC
antisense: TCGAGTTGGAAAAAAGGCCTAATGCCGAACACATTTCGATGTGTTCGGCATTAGGCCGG
modifications: the letters are possibly those of the target site
For B1, the “level of MDR1 mRNA” value with MDR1 mRNA is listed as “decreased level of MDR1 mRNA”. The P-glycoprotein expression entry with P-glycoprotein was “inhibition of P-glycoprotein expression”.
